Results on eight compounds are retold here after patent EP0532097A1, “Piperazinyl(sulfon)amide derivatives of camphor as oxytocin antagonists” (MERCK & CO. INC., priority 1991, dated 1993).

In this test the target is T1, uterine OT receptors (Rattus norvegicus, UniProt P70536).
T1 construct: using a crude membrane preparation of uteri; from tissue; host or cells: uterus of DES-treated rats, crude membrane preparation
T1 sequence (P70536 1-388): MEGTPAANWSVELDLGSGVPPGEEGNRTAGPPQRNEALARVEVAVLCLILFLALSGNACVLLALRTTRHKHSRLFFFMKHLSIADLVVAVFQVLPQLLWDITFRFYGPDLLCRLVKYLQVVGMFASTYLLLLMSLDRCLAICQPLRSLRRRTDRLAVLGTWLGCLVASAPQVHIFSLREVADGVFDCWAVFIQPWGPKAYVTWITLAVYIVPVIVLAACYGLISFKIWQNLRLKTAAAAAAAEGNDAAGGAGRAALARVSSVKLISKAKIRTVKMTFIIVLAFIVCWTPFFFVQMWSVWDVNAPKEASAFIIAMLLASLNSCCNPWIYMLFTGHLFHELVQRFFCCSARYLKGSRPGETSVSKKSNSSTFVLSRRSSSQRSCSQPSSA
In words: [³H]Oxytocin radioligand binding assay, crude membrane preparation of uteri from DES-treated rats. The settings on record: for IC50: competition with 1 nM [³H]OT, 60 minutes, 22°C, concentration that inhibits 50% of OT, read-out: IC50; for inhibition at 0.1 µM: read-out: inhibition at 100 nM.

Procedure: The high affinity binding of [³H] Oxytocin (OT)([tyrosyl, 3,5-[³H]OT; 30-60 Ci/mmol; New England Nuclear. Boston, MA) to uterine OT receptors was based on an assay (Fuchs, A-R; Fuchs, F; Soloff, MS. 1985 J. Clin. Endocrinol. Metab. 60:37) using a crude membrane preparation of uteri taken from diethylstilbestrol dipropionate (DES)-treated (0.3 mg/kg, ip; 18-24) rats. Competition studies were conducted at equilibrium (60 minutes; 22°C) using 1 nM[³H]OT in the following assay buffer: 50 mM Tris-HCl, 5 mM MgCl₂, and 0.1% BSA, pH 7.4. Nonspecific binding (10% of the total binding) was determined using 1 mM unlabeled OT and the binding reaction was terminated by filtration through glass fiber filters using a cell harvester (model 7019, Skatron, Inc., Sterling, VA). IC₅₀ (the concentration of tested compound that inhibits 50% of OT) was reported, unless otherwise noted.

For `Cc1ccccc1N1CCN(S(=O)(=O)C[C@]23CC[C@H](C[C@@H]2N(C)C(=O)[C@H](CCS(C)(=O)=O)N(C)C)C3(C)C)CC1` [Example 42, 1-((7,7-Dimethyl-2-endo-methyl(2s-dimethylamino-4-(methylsulfonyl)-butanoyl)amino-bicyclo(2.2.1)heptan-1-yl)methanesulfonyl)-4-(2-methylphenyl)-piperazine], the IC50 (in general, the concentration that inhibits the measured activity by half) was 9.2 nM.
As to `Cc1ccccc1N1CCN(S(=O)(=O)C[C@]23CC[C@H](C[C@@H]2NC(=O)Cc2c[nH]cn2)C3(C)C)CC1` [Example 43], the IC50 stood at 110 nM.
The same measure, in the same setting: the same measure for `Cc1ccccc1N1CCN(S(=O)(=O)C[C@]23CC[C@H](C[C@@H]2NC(=O)C(C)c2c[nH]cn2)C3(C)C)CC1` (stereo partly drawn) [Example 44, 1-((7,7-Dimethyl-2-endo-(2-(4-imidazolyl)propanoyl)-amino-bicyclo-(2.2.1)heptan-1-yl)methanesulfonyl)-4-(2-methylphenyl)piperazine]: 26 nM.
As for `CCOC(=O)CN1CCCC(C(=O)NCC(C)C2(O)CC3CCC2(CS(=O)(=O)N2CCN(c4ccccc4C)CC2)C3(C)C)C1` (stereo not drawn) [Example 50, 1-((7,7-Dimethyl-2-exo-hydroxy-2-endo-2-(1-(3-(1-ethoxycarbonyl-methyl)piperidinylcar-bonyl)amino)propyl-bicyclo(2.2.1)heptan-1-yl)methanesulfonyl)-4-(2-methylphenyl)piperazine], the inhibition (in general, the relative decrease from the control value, in per cent) at 0.1 µM is 66%.
Take `CCOC(=O)CN1CCCC1C(=O)NCC(C)C1(O)CC2CCC1(CS(=O)(=O)N1CCN(c3ccccc3C)CC1)C2(C)C` (stereo not drawn) [Example 52, 1-((7,7-Dimethyl-2-exo-hydroxy-2-endo-2-(1-(l-n-(ethoxycarboxymethyl)-prolyl)amino)propyl-bicyclo-(2.2.1)heptan-1-yl)methanesulfonyl)-4-(2-methylphenyl)piperazine]: the inhibition at 0.1 µM amounted to 66%.
In the case of `CCOC(=O)CN1CCC(C(=O)NCC(C)C2(O)CC3CCC2(CS(=O)(=O)N2CCN(c4ccccc4C)CC2)C3(C)C)CC1` (stereo not drawn) [Example 57, 1-((7,7-Dimethyl-2-exo-hydroxy-2-endo-2-(1-(3-(1-ethoxycarbonyl-methyl)piperidinylcar-bonyl)amino)propyl-bicyclo(2.2.1)heptan-1-yl)methanesulfonyl)-4-(2-methylphenyl)piperazine], the inhibition at 0.1 µM was found to be 66%.
For “Two isomers of 1-((7,7-dimethyl-2-exo-hydroxy-2-endo-2-(1-(3-methoxycarbonyl)-2-pyrrolidinon-1-yl)propylbicyclo-(2.2.1)heptan-1-yl)methanesulfonyl)-4-(2-methylphenyl)piperazine [Example 26]”, the IC50 turned out to be 35 nM.
Consider [³H]OT [reference compound], for which binding (saturation binding assay, uterus) was characterised by a dissociation constant (Kd) of 0.7 nM.
